Tested on: yeast genes (level of expressed mRNA)
Assay: DNA chip analysis of expressed mRNA of yeast genes after 2 h culture with a toxic chemical substance
Assay type: cell-based, Saccharomyces cerevisiae S288C
Protocol: Yeast (Saccharomyces cerevtisiae S288C (α SUC2mal mel gap2 CUP1)) were cultured at 25° C. on YPD medium (yeast extract 1%, polypepton 2%, glucose 2%). One of toxic chemical substances was added to the cell at logarithmic growth phase, and the cell was further cultured for two hours. Cell was cultured without any chemical substance in the same condition, and was used as control. Concentrations of the chemical substances were defined to inhibit the growth of the yeast but not lead to death.
After the completion of cultivation, the culture was centrifuged to collect the cells. To the cells, sodium acetate buffer (50 mM sodium acetate, 10 mM EDTA, 1% SDS) was added, and the mixture was shaken at 65° C. for five minutes, followed by returning to room temperature, and obtaining the supernatant, which procedure was repeated two times. To the supernatant, ½ amount of a solution of phenol/chloroform was added, and the mixture was centrifuged to give a supernatant, which was added with an equal amount of chloroform, and the mixture was centrifuged to give a supernatant. To the supernatant, an equal amount of isopropanol containing 0.3 M sodium acetate was added, and the mixture was allowed to stand at room temperature for 30 minutes, after which the mixture was centrifuged to give a sediment of the whole RNAs. Seventy % ethanol was added to the sediment, and the mixture was again centrifuged to give a sediment, which was then dried and dissolved in water. mRNA was isolated from the whole RNAs as followings. In view of the fact that a poly A chain is attached to the 3′ terminus of mRNA, a polynucleotide having a poly T structure which was immobilized on the surface of latex beads was used to trap the mRNA, and then the mRNA was washed and eluted with spine column (Oligotex-dT30<Super>mRNA Purification Kit, Takara). Reverse transcription of the mRNA was conducted with a reverse transcriptase (Super Script II Reverse Transcriptase; catalogue No. 18064-014, GibcoBRL) using fluorescence-labeled nucleotides to give cDNAs that were introduced with Cy3-dUTP or Cy5-dUTP during the reverse transcription.
The labeled cDNAs were dissolved in TE buffer (10 mM Tris-HCl/1 mM EDTA, pH8.0), and the solution was dropped on the DNA chip containing the whole genes of yeast (DNA Chip Research Inc. Japan) so that the cDNAs were hybridized on the DNA chip at 65° C. for over 12 hours. The fluoresces intensity of the DNA chip was read with a scanner, and the ratio relative to the fluorescence intensity resulting from the absence of chemical substance was estimated as the following, which is shown in Tables 1 to 9: [formula]
In the Tables, “Intensity” indicated in the rightmost column is a value of the level of expressed mRNA of each gene in control cells as divided by the average level of the expressions of the whole genes.

With S=C([S-])NCCNC(=S)[S-].[Zn+2] [(11), zinc N,N′-ethylenebis(dithiocarbamate)] the “The level of expressed mRNA in the presence of chemical substance/absence: YML029W” value (gene YML029W) was 1.2, the “The level of expressed mRNA in the presence of chemical substance/absence: YML041C” value (gene YML041C) was 0.9 and the “The level of expressed mRNA in the presence of chemical substance/absence: YML079W” value (gene YML079W) was 1.2. The “level of expressed mRNA in the presence of chemical substance/in its absence” value (“level … of chemical substance/in its absence” for short) (gene YML110C) was 1.7, the “The level of expressed mRNA in the presence of chemical substance/absence: YML118W” value (gene YML118W) was 1.3 and the “The level of expressed mRNA in the presence of chemical substance/absence: YMR068W” value (gene YMR068W) was 1.1. The “The level of expressed mRNA in the presence of chemical substance/absence: YMR071C” value (gene YMR071C) was 1.2, the “level … of chemical substance/in its absence” value (gene YMR105C) was 3.0 and the “The level of expressed mRNA in the presence of chemical substance/absence: YMR114C” value (gene YMR114C) was 1.0. For the same compound, the “The level of expressed mRNA in the presence of chemical substance/absence: YMR115W” value (gene YMR115W) was 1.1, the “The level of expressed mRNA in the presence of chemical substance/absence: YMR160W” value (gene YMR160W) was 1.0 and the “level … of chemical substance/in its absence” value (gene YMR189W) was 8.2. The “The level of expressed mRNA in the presence of chemical substance/absence: YMR258C” value (gene YMR258C) was 1.4, the “level … of chemical substance/in its absence” value (gene YMR271C) was 1.7 and the “level … of chemical substance/in its absence” value (gene YMR272C) was 0.8. For the same compound, the “level … of chemical substance/in its absence” value (gene YMR296C) was 0.8, the “level … of chemical substance/in its absence” value (gene YNL012W) was 1.6 and the “The level of expressed mRNA in the presence of chemical substance/absence: YNL026W” value (gene YNL026W) was 1.1. The “level … of chemical substance/in its absence” value (gene YNL037C) was 1.4, the “level … of chemical substance/in its absence” value (gene YNL045W) was 2.1 and the “The level of expressed mRNA in the presence of chemical substance/absence: YNL058C” value (gene YNL058C) was 1.0. The “The level of expressed mRNA in the presence of chemical substance/absence: YNL063W” value (gene YNL063W) was 1.1, the “level … of chemical substance/in its absence” value (gene YNL104C) was 2.1 and the “level … of chemical substance/in its absence” value (gene YNL106C) was 0.9. The “level … of chemical substance/in its absence” value (gene YNL130C) was 1.5, the “level … of chemical substance/in its absence” value (gene YNL169C) was 0.8 and the “The level of expressed mRNA in the presence of chemical substance/absence: YNL176C” value (gene YNL176C) was 1.2. For the same compound, the “The level of expressed mRNA in the presence of chemical substance/absence: YNL181W” value (gene YNL181W) was 1.2, the “The level of expressed mRNA in the presence of chemical substance/absence: YNL191W” value (gene YNL191W) was 1.0 and the “The level of expressed mRNA in the presence of chemical substance/absence: YNL194C” value (gene YNL194C) was 17.1. For the same compound, the “The level of expressed mRNA in the presence of chemical substance/absence: YNL200C” value (gene YNL200C) was 3.1, the “The level of expressed mRNA in the presence of chemical substance/absence: YNL212W” value (gene YNL212W) was 1.3 and the “level … of chemical substance/in its absence” value (gene YNL231C) was 1.3. The “The level of expressed mRNA in the presence of chemical substance/absence: YNL253W” value (gene YNL253W) was 0.8, the “The level of expressed mRNA in the presence of chemical substance/absence: YNL265C” value (gene YNL265C) was 0.9 and the “The level of expressed mRNA in the presence of chemical substance/absence: YNL276C” value (gene YNL276C) was 0.7. The “level … of chemical substance/in its absence” value (gene YNL322C) was 0.6, the “level … of chemical substance/in its absence” value (gene YNR002C) was 1.6 and the “level … of chemical substance/in its absence” value (gene YNR019W) was 0.7. For the same compound, the “level … of chemical substance/in its absence” value (gene YNR033W) was 0.4, the “The level of expressed mRNA in the presence of chemical substance/absence: YNR051C” value (gene YNR051C) was 1.5 and the “level … of chemical substance/in its absence” value (gene YNR059W) was 1.0. For the same compound, the “The level of expressed mRNA in the presence of chemical substance/absence: YOL026C” value (gene YOL026C) was 1.2, the “The level of expressed mRNA in the presence of chemical substance/absence: YOL030W” value (gene YOL030W) was 1.3 and the “level … of chemical substance/in its absence” value (gene YOL058W) was 2.3. For the same compound, the “level … of chemical substance/in its absence” value (gene YOL126C) was 1.8, the “level … of chemical substance/in its absence” value (gene YOL143C) was 2.0 and the “level … of chemical substance/in its absence” value (gene YOL153C) was 2.4. For the same compound, the “level … of chemical substance/in its absence” value (gene YOL157C) was 1.2, the “The level of expressed mRNA in the presence of chemical substance/absence: YOR022C” value (gene YOR022C) was 1.7 and the “The level of expressed mRNA in the presence of chemical substance/absence: YOR087W” value (gene YOR087W) was 1.3. For the same compound, the “The level of expressed mRNA in the presence of chemical substance/absence: YOR088W” value (gene YOR088W) was 0.8, the “level … of chemical substance/in its absence” value (gene YOR099W) was 1.2 and the “level … of chemical substance/in its absence” value (gene YOR130C) was 0.6. The “level … of chemical substance/in its absence” value (gene YOR136W) was 1.4, the “The level of expressed mRNA in the presence of chemical substance/absence: YOR138C” value (gene YOR138C) was 0.7 and the “The level of expressed mRNA in the presence of chemical substance/absence: YOR155C” value (gene YOR155C) was 1.6.

Reference: patent publication US20050112573A1, “Method of detecting toxic substance” (priority 2001, published 2005)
